What was measured:
Assay type in all cases: functional
Influenza A virus [1] = test: Antiviral activity against Influenza A virus (A/chicken/Egypt/1/2006 (H5N1)) infected in MDCK cells assessed as virus-induced cytopathogenicity at 40 ug after 3 to 4 days by plaque reduction assay
Influenza A virus [2] = test: Antiviral activity against Influenza A virus (A/chicken/Egypt/1/2006 (H5N1)) infected in MDCK cells assessed as virus-induced cytopathogenicity at 20 ug after 3 to 4 days by plaque reduction assay
Influenza A virus [3] = test: Antiviral activity against Influenza A virus (A/chicken/Egypt/1/2006 (H5N1)) infected in MDCK cells assessed as virus-induced cytopathogenicity at 5 ug after 3 to 4 days by plaque reduction assay
Influenza A virus [4] = test: Antiviral activity against Influenza A virus (A/chicken/Egypt/1/2006 (H5N1)) infected in MDCK cells assessed as virus-induced cytopathogenicity at 10 ug after 3 to 4 days by plaque reduction assay

Compound	inhibition (INH) (Influenza A virus [1]) [%]	inhibition (INH) (Influenza A virus [2]) [%]	inhibition (INH) (Influenza A virus [3]) [%]	inhibition (INH) (Influenza A virus [4]) [%]
O=c1[nH]c(=S)[nH]c2sc3c(c12)-c1ccccc1CC3	65	–	–	–
O=c1[nH]c(=O)c2c3c(sc2[nH]1)CCc1ccccc1-3	98	95	92	94
NC(=O)c1c(N)sc2c1-c1ccccc1CC2	89	–	–	–

From ChEMBL document CHEMBL1275310, “Synthesis and screening of some novel fused thiophene and thienopyrimidine derivatives for anti-avian influenza virus (H5N1) activity” (2010)
